The values below are quoted from earlier work in patent US20230033195A1, “METHODS AND COMPOSITIONS FOR IMPROVING COGNITIVE FUNCTION” (THE JOHNS HOPKINS UNIVERSITY, priority 2011, published 2023).

Like-named read-outs stand apart in the source and are kept apart here.

The conditions of the data set: cited from earlier work.

Consider `CC[C@@H](C(N)=O)N1CCCC1=O` [levetiracetam, (2S)-2-(2-oxopyrrolidin-1-yl) butanamide], for which the absorption result (after oral administration) is “rapidly and almost completely absorbed”. For the same compound, the plasma half-life is 9 to 10 h (expected in elderly due to decreased renal function) and “approximately 7 ± 1 hour” (in vivo). In addition, the “time of peak plasma concentrations” value (following oral administration) was “about 1 hour”. Where the note is “multiple twice-daily dosing”, the “time to steady state” value is recorded as 2 days. For the same compound, under “oral administration”, the “effect of food on bioavailability” value is “not affected by food”.
